Measurements: ChEMBL document CHEMBL1914397, “Daedalols A-C, fungal-derived BACE1 inhibitors” (Bioorg Med Chem, 2011)

Target: Beta-secretase 1 (Homo sapiens, UniProt P56817)
Assay: Inhibition of BACE1-mediated amyloid precursor protein cleavage after 16 hrs by chemiluminescent enzyme-fragment complementation assay

Beta-secretase 1, sequence (P56817 whole entry, the tested form may be a part): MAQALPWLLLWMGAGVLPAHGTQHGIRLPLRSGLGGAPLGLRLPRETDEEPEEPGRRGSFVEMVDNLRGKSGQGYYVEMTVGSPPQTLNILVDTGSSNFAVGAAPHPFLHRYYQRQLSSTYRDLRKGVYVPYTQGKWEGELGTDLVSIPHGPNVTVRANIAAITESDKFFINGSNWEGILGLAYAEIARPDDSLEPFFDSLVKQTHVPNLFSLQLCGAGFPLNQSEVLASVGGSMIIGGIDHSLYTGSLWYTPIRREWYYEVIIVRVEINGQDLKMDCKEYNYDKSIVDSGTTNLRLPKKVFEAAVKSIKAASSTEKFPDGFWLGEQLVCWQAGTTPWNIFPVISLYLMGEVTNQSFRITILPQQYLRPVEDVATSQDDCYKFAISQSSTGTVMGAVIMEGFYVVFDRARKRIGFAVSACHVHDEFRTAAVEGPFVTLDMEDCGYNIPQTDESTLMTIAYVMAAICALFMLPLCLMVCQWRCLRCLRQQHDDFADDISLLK

C[C@H](CC(=O)[C@@]1([C@H](C)C(=O)O)CO1)[C@H]1CC[C@@]2(C)C3=C(CC[C@]12C)[C@@]1(C)CC[C@@H](OC(=O)CC(=O)O)C(C)(C)[C@@H]1CC3 [DAEDALOL C]
IC50: 14.2 µM
